According to patent publication US20210078958A1, “QUINAZOLINE DERIVATIVE AND USE THEREOF” (MEDSHINE DISCOVERY INC., priority 2017, published 2021):

What was measured:
[1] = tested on: NCI-N87 cell; assay: inhibitory activity on cell proliferation (Cell-Titer-Glo), NCI-N87; type: cell-based; details: Homo sapiens, NCI-N87, 72 h; incubation for 3 days, Cell-Titer-Glo
Description: Purpose of the assay: to detect the inhibitory activity of the test compounds on cell proliferation.
Principle of the assay: the luciferase in a Cell-Titer-Glo reagent produces oxidized luciferin with luciferin, oxygen and ATP as reaction substrates, and releases energy in the form of light. Since the luciferase reaction requires ATP, the total amount of light generated by the reaction is proportional to the total amount of ATP that reflects cell viability.
Cell Titer-Glo cell viability assay kit with luminescence (Promega #G7573)
According to the schematic diagram of the cell seed plate, cells were seeded in a 384- or 96-well plate at a density of 1000 cells per well and 25 μL per well, and 25 μL of PBS was added to the wells near edge of the place where no cells were seeded.
(1) The stock solution of the compounds has a concentration of 10 mM, and the compounds were diluted with DMSO to an initial concentration of 4 mM. The compounds were added to the plate with stock solution of compounds, 9 μL per well.
(2) The compounds were diluted with an ECHO liquid workstation, where 125 nL of compounds were added to each well of the cell plate, 125 nL of DMSO was added to each of the cell well in columns 2 and 23, and 125 nL of DMSO was added to each PBS well in columns 1 and 24.
2.3 After addition of the compounds, the cell plate was centrifuged at 1000 rpm for 1 min, and then placed in a 37° C., 5% CO2 incubator for incubation for 3 days.
The cell plate was taken out from the incubator and equilibrated at room temperature for 30 minutes. 25 μL of Cell-Titer-Glo reagent was added to each well, shaken for one minute to allow well mixed, and centrifuged at 1000 rpm for 1 minute. After 10 minutes, the plate was read on PerkinElmer Envision, and the […] reading time was set to 0.2 second.

[2] = tested on: subcutaneous xenograft tumor of human gastric cancer NCI-N87 cells; type: in vivo; details: for Tumor volume (mm3) (Day 21) / T/C (%) / TGI (%): 3 mg/kg (D0-7) + 1 mg/kg (D8-21); for Tumor volume (mm3) (Day 21): NCI-N87 xenograft, Mean ± SEM; for T/C (%) / TGI (%): day 21
Experimental: Purpose of the assay: to evaluate the in vivo efficacy of compounds to be tested on subcutaneous xenograft tumor of human gastric cancer NCI-N87 cells in a BALB/c nude mouse model.
Animals of the assay: female BALB/c nude mice, 6-8 weeks old, weighted 18-22 grams; supplier: shanghai sippr bk laboratory animals Ltd.
Human gastric cancer NCI-N87 cells were cultured in monolayer in vitro. The culture conditions were RPMI-1640 medium plus 10% fetal bovine serum, 100 U/mL penicillin, 100 μg/mL streptomycin and 2 mM glutamine, 37° C., 5% CO2. The passaging was performed by the conventional digestion with trypsin-EDTA twice a week. When the cell saturation was 80%-90%, the cells were collected, counted and inoculated.
0.2 mL (10×10^6 cells) of NCI-N87 cells were inoculated subcutaneously on the right back of each nude mouse (PBS+Matrigel, 1:1). When the average tumor volume reached 145 mm^3, administration to each group was started.
The test compounds were formulated into a 0.3 mg/mL clear solution in the solvents of 10% NMP (N-methylpyrrolidone)+10% ethylene glycol stearate+80% water.
The assay index is to investigate whether tumor growth is inhibited, delayed or cured. Tumor diameter was measured twice a week with a vernier caliper. The calculation formula of tumor volume is: V=0.5a×b^2, wherein a and b represent the long and short diameters of tumor, respectively.
The antitumor efficacy of the compounds were evaluated by TGI (%) or relative tumor proliferation rate T/C (%). TGI (%) reflects the tumor growth inhibition rate. TGI (%) is calculated as follows: TGI (%)=[1−(average tumor volume at the end of administration for a certain treatment group−average tumor volume at the beginning of administration for this treatment group)/(average tumor volume at the end of treatment for a solvent control group−average tumor volume at the beginning of administration for this solvent control group)][…].
Relative tumor proliferation rate T/C (%): the calculation formula is as follows: T/C %=TRTV/CRTV (TRTV: RTV for the treatment group; CRTV: RTV for the negative control group). Relative tumor volume (RTV) is calculated based on tumor measurement results. The calculation formula is RTV=Vt/V0, wherein V0 is the average tumor volume measured at the beginning of administration (i.e., d0) to each group, Vt is the average tumor volume at a certain measurement, and the data for TRTV and CRTV were taken on the same day.
The tumor weight was measured after the assay is over and the T/C weight percentage was calculated. T weight and C weight represent the tumor weight of the administration group and the vehicle control group, respectively.
Statistical analysis included the mean and standard error (SEM) of tumor volume at each time point in each group. […] The comparison between two groups was analyzed by T-test, and the comparison among three or more groups was analyzed by one-way ANOVA. […] All data analysis was carried out with SPSS 17.0. p<0.05 was considered a significant difference.

[3] = biological target: T1, CYP3A4 (Homo sapiens, UniProt P08684); assay: inhibition of CYP enzyme activity in human liver microsome, CYP3A4; type: in vitro ADME
T1 construct: in the assay of CYP enzyme activity in human liver microsome; from tissue; host or cells: human liver microsome
Description: The results of the compounds disclosed herein and the reference compound Poziotinib in the assay of CYP enzyme activity in human liver microsome were shown in the following table (Table 8).

T1 sequence (P08684 whole entry): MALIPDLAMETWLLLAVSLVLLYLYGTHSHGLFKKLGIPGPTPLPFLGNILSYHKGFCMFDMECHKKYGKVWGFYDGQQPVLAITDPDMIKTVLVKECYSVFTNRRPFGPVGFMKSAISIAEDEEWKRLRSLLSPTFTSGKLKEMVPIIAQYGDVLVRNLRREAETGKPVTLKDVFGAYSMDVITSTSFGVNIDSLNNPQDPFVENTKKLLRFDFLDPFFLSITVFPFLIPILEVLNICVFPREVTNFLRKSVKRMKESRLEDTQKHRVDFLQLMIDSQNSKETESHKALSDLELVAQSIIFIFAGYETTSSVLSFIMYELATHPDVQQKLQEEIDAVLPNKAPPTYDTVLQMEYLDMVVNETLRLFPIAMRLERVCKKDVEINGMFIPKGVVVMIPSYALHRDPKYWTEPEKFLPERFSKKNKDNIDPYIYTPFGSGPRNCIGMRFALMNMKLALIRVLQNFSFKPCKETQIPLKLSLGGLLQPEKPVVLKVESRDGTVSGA

Q: What does the source list for C=CC(=O)N1[C@@H]2CC[C@H]1C[C@H](Oc1cc3c(Nc4ccc(Cl)c(Cl)c4F)ncnc3cc1OC)C2 [Example 8]?
A: IC50 [1]: 0.28 nM; Tumor volume (mm3) (Day 21) [2]: 30 ± 7 mm3; T/C (%) [2]: 4.19%; TGI (%) [2]: 119.71%; body weight of test animals (reference index for drug toxicity) ([2]; mouse, in vivo): significantly better than that of the control compound Poziotinib

Q: With C=CC(=O)N1[C@@H]2CC[C@H]1C[C@H](Nc1cc3c(Nc4ccc(Cl)c(Cl)c4F)ncnc3cc1OC)C2 [Example 38] as the compound, how does the IC50 [1] read?
A: The IC50 was 0.46 nM.

Q: What about the IC50 [3] of the same compound?
A: The IC50 was over 50 µM.

Q: What about the “inhibition of CYP enzyme CYP3A4” value [3] of the same compound?
A: The value was “no inhibitory activity”.

Q: How did the IC50 [3] turn out when C=CC(=O)N1CCC(Oc2cc3c(Nc4ccc(Cl)c(Cl)c4F)ncnc3cc2OC)CC1 [Poziotinib, reference compound] was run?
A: Its IC50 is over 50 µM.

Q: And the “inhibition of CYP enzyme CYP3A4” value [3]?
A: The value was “no inhibitory activity”.

Q: And the “Tumor volume (mm3) (Day 21)” value [2]?
A: The value was 54 ± 12 mm3.

Q: What about the “T/C (%)” value [2] of the same compound?
A: Its value is 7.55%.

Q: And the “TGI (%)” value [2]?
A: The value was 115.6%.
